We go through eleven molecules from ChEMBL document CHEMBL4808172, “Structure-Activity Relationship of Heterocyclic P2Y14 Receptor Antagonists: Removal of the Zwitterionic Character with Piperidine Bioisosteres” (J Med Chem, 2021).

SMILES strings stand for the structures. Converted amounts (≈) assume the structure as drawn. “And” between values parts separate entries of the source, which are not always exact repeats. Equal entries are not always repeated. The source made the active and inactive calls. No cut-off for these calls is given here. Some results are limits rather than exact numbers.

For one series, the system named is Mus musculus. The series can be described thus: Antiinflammatory activity in mouse model of ovalbumin/Aspergillus-induced allergic asthma assessed as reduction in eosinophil counts in BALF at 20 umol/kg, ip administered 30 mins prior to allergen challenge and measured after 2 days post challenge. It counts as functional, organism-based. Conditions: dose 20.0 µmol/kg, time 2.0 day.

Series [1] deals with T1, liver carboxylesterase (Sus scrofa, UniProt Q29550).
T1 sequence (Q29550 whole entry): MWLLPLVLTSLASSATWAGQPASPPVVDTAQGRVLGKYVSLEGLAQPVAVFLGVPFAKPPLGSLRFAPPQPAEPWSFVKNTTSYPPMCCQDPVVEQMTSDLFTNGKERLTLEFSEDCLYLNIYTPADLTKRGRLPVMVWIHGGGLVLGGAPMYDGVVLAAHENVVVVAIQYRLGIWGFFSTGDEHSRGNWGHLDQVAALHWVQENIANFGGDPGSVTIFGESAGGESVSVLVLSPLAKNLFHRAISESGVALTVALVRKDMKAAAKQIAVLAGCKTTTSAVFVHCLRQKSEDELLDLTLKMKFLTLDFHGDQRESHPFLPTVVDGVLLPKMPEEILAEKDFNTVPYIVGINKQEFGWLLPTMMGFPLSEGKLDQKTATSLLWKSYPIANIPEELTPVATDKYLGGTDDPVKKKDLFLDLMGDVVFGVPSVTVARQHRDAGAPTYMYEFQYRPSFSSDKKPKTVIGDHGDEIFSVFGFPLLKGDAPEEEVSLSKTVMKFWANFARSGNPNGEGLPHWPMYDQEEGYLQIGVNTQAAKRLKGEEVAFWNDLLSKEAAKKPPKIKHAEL
Briefly: Drug metabolism in pH 7.5 HEPES buffer assessed as porcine liver esterase-mediated compound hydrolysis measured up to 72 hrs by HPLC analysis. Format: ADME. To be noted: pig, read-out: Drug degradation.

Series [2] can be described thus: Stability of compound in aqueous medium after 24 hrs in absence of PLE by HPLC analysis. Format: physicochemical. To be noted: buffer.
The target of series [3] is T1, liver carboxylesterase. The series can be described thus: Drug metabolism in pH 7.5 HEPES buffer assessed as porcine liver esterase-mediated compound hydrolysis by measuring half life measured up to 72 hrs by HPLC analysis. Format: ADME, tissue-based. To be noted: pig.
For series [4], the target named is T2, Sigma intracellular receptor 2 (Homo sapiens, UniProt Q5BJF2). Briefly: Binding affinity to sigma 2 receptor (unknown origin).
Another series deals with Translocator protein (Homo sapiens, UniProt P30536). Briefly: Binding affinity to TSPO (unknown origin).
For series [5], the target named is Delta-type opioid receptor (Homo sapiens, UniProt P41143). Briefly: Binding affinity to DOR (unknown origin).
Series [6] concerns the target Sigma non-opioid intracellular receptor 1 (Homo sapiens, UniProt Q99720). Briefly: Binding affinity to sigma 1 receptor (unknown origin).
Series [7] in a line: Aqueous solubility of compound at pH 7.4. Format: physicochemical. Conditions: buffer.
For the next series, the target named is Histamine H1 receptor (Homo sapiens, UniProt P35367). Briefly: Binding affinity to H1 receptor (unknown origin).
Series [8] in a line: Aqueous solubility of compound at pH 4.0. It counts as physicochemical. To be noted: buffer.
Series [9] deals with T1, liver carboxylesterase. The series can be described thus: Drug metabolism in pH 7.5 HEPES buffer assessed as porcine liver esterase-mediated compound hydrolysis by measuring half life measured up to 120 mins by HPLC analysis. It counts as ADME, tissue-based. Conditions: pig.
A further series concerns the target T3, P2Y purinoceptor 14 (Homo sapiens, UniProt Q15391).
T3 sequence (Q15391 whole entry): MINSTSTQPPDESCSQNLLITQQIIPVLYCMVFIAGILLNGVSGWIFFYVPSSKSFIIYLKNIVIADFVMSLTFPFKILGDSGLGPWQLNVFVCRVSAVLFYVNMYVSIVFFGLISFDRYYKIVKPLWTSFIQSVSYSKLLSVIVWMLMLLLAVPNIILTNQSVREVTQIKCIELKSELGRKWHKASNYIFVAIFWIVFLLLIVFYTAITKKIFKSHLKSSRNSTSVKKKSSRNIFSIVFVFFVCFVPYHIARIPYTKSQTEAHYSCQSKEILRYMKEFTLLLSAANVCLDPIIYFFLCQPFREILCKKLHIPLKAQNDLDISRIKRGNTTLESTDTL
Briefly: cell-based.

Series [10] has as its target Voltage-gated inwardly rectifying potassium channel KCNH2 (Homo sapiens, UniProt Q12809).
The target of series [11] is T4, Alpha-2A adrenergic receptor (Homo sapiens, UniProt P08913).
T4 sequence (P08913 whole entry): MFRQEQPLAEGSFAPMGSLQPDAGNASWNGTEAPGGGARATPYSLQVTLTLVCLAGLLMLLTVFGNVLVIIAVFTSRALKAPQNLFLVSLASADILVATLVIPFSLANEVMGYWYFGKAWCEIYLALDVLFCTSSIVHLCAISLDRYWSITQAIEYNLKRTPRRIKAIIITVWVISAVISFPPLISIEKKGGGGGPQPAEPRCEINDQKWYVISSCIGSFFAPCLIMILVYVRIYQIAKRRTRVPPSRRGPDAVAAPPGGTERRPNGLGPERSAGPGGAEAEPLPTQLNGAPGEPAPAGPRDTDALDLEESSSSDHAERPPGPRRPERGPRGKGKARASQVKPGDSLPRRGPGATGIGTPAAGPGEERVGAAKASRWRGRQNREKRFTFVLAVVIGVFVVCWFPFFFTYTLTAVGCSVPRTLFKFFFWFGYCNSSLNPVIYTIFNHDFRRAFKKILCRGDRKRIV
Briefly: Binding affinity to alpha2a (unknown origin).

A further series addresses D(1B) dopamine receptor (Homo sapiens, UniProt P21918). The series can be described thus: Binding affinity to D5 receptor (unknown origin).
Series [12] concerns the target T2, Sigma intracellular receptor 2. The series can be described thus: Inhibition of sigma 2 receptor (unknown origin) at 10 uM relative to control.
The target of the next series is Histamine H4 receptor (Homo sapiens, UniProt Q9H3N8). The series can be described thus: Binding affinity to H4 receptor (unknown origin).
The target in series [13] is 5-hydroxytryptamine receptor 1D (Homo sapiens) (UniProt P28221). The series can be described thus: Inhibition of 5HT1D (unknown origin) at 10 uM relative to control.
For a further series, the target named is D(1A) dopamine receptor (Homo sapiens, UniProt P21728). Briefly: Binding affinity to D1 receptor (unknown origin).
Series [14] deals with T5, Alpha-1B adrenergic receptor (Homo sapiens, UniProt P35368).
T5 sequence (P35368 whole entry): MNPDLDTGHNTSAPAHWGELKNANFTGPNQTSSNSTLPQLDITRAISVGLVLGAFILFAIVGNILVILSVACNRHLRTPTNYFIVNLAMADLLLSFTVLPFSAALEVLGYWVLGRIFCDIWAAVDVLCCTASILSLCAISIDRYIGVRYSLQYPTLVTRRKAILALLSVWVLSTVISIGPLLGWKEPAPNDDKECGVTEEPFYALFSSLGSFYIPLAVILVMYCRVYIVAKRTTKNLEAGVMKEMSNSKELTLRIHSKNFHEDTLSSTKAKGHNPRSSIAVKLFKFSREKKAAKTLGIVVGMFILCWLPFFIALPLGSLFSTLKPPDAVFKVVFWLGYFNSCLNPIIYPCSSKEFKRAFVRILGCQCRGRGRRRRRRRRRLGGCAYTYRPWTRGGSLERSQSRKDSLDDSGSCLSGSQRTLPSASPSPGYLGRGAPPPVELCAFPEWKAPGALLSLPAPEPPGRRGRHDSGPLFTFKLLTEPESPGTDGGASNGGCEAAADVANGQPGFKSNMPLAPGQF
The series can be described thus: Binding affinity to alpha1b (unknown origin).

The target in series [15] is T6, Alpha-2B adrenergic receptor (Homo sapiens) (UniProt P18089).
T6 sequence (whole entry): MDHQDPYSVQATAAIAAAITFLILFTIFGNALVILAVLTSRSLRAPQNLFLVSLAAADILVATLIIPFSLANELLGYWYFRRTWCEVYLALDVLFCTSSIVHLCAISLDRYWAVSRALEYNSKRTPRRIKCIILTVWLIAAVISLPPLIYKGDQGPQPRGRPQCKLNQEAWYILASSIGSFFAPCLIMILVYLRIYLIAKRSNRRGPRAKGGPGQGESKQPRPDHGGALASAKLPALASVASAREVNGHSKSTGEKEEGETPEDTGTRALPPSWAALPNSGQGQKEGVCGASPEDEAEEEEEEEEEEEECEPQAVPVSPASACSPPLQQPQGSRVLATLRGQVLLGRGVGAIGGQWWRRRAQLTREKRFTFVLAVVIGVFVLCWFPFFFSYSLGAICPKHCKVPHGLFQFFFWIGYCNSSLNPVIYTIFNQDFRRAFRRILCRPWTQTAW
Briefly: Inhibition of alpha2b (unknown origin) at 10 uM relative to control.

T2 sequence (Q5BJF2 whole entry): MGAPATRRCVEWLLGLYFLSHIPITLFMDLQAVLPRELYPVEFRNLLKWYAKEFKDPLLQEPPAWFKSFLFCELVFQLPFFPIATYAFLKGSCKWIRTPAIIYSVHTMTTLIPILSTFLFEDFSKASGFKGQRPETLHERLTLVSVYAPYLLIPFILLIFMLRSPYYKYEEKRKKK
Sequence of Sigma non-opioid intracellular receptor 1 (Q99720 whole entry): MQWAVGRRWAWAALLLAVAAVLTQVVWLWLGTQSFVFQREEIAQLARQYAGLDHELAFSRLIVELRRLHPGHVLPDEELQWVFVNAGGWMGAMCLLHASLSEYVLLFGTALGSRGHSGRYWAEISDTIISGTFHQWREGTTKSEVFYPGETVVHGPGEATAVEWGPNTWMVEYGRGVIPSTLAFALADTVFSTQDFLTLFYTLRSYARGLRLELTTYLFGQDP
Sequence of Delta-type opioid receptor (P41143 whole entry): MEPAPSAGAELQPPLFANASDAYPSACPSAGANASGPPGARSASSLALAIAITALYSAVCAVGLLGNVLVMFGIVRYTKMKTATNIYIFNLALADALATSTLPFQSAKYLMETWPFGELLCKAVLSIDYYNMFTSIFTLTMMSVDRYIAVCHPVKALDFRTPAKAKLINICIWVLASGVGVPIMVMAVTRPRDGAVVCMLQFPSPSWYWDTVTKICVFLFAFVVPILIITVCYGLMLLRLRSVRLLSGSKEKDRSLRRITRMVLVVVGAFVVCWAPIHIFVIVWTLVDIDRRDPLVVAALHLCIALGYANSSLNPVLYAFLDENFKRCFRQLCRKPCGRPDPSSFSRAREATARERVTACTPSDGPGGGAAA
Sequence of Translocator protein (P30536 whole entry): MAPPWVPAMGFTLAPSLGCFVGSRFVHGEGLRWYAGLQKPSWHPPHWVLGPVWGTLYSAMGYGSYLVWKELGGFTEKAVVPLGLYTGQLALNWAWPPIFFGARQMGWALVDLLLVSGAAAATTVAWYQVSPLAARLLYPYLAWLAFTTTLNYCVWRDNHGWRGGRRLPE
Sequence of Voltage-gated inwardly rectifying potassium channel KCNH2 (Q12809 whole entry): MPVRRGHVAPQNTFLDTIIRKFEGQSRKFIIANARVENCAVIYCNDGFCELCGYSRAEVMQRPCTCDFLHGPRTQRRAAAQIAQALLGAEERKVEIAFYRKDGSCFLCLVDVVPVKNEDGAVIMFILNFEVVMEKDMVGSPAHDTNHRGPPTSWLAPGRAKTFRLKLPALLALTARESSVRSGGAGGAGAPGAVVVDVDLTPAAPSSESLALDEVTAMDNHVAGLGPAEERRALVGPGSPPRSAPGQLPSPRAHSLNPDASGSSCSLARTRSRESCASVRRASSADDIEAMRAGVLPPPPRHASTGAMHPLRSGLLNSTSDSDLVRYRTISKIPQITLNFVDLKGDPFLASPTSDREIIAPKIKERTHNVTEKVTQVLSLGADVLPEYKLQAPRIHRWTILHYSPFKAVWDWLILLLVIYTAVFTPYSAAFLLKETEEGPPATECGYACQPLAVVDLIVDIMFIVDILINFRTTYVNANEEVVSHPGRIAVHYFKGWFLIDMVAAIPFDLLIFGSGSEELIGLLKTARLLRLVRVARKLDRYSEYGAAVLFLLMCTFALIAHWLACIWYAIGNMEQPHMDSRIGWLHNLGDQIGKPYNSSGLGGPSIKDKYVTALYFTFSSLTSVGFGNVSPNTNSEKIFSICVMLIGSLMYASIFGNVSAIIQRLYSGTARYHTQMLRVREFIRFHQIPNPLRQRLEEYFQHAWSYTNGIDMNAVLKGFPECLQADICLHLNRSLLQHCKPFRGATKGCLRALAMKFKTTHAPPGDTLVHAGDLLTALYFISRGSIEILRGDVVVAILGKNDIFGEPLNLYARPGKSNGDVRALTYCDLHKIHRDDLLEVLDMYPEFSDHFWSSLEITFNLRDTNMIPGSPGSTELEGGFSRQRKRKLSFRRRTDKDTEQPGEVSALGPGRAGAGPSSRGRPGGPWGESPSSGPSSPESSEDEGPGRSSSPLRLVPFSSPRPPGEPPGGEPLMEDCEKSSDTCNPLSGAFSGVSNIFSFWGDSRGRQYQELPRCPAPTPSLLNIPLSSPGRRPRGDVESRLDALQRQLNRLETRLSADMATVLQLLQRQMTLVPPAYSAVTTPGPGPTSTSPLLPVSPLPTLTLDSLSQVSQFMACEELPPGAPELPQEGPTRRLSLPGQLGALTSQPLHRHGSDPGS
Sequence of Histamine H4 receptor (Q9H3N8 whole entry): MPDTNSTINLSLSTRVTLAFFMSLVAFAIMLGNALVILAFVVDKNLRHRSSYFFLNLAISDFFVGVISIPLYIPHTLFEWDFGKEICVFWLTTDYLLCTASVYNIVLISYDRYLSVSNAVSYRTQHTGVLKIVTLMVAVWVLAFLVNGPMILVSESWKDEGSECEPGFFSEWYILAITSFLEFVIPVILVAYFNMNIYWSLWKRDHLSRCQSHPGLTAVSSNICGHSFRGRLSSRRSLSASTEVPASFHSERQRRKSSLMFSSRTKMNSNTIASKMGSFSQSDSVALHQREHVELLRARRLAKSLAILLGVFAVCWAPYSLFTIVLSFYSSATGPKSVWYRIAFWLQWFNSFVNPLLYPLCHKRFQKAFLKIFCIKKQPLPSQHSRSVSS
Sequence of D(1A) dopamine receptor (P21728 whole entry): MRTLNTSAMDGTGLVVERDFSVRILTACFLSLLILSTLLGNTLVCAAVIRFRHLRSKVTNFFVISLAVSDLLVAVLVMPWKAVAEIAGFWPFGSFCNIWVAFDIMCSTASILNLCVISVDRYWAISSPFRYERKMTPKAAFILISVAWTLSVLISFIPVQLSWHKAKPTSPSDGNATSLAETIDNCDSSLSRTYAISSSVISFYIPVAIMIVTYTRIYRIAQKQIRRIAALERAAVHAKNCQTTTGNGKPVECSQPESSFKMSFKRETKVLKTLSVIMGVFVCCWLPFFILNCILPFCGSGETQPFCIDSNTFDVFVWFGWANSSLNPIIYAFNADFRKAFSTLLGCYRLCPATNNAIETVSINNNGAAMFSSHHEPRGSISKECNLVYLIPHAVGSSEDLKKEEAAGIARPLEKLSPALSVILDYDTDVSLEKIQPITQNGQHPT
Sequence of D(1B) dopamine receptor (P21918 whole entry): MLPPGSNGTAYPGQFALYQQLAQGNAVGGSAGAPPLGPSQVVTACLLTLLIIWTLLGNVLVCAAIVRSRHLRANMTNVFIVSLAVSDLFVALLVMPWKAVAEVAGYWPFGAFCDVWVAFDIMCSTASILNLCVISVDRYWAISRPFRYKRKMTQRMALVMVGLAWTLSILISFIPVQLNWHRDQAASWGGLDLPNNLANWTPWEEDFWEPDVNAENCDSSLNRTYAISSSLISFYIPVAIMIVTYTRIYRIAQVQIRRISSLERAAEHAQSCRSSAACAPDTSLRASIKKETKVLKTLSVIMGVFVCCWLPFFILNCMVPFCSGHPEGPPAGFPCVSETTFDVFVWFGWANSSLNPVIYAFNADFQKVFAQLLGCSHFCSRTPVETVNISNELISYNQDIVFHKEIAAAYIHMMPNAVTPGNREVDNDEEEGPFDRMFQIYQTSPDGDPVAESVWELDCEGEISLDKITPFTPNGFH
Sequence of 5-hydroxytryptamine receptor 1D (Homo sapiens) (P28221 whole entry): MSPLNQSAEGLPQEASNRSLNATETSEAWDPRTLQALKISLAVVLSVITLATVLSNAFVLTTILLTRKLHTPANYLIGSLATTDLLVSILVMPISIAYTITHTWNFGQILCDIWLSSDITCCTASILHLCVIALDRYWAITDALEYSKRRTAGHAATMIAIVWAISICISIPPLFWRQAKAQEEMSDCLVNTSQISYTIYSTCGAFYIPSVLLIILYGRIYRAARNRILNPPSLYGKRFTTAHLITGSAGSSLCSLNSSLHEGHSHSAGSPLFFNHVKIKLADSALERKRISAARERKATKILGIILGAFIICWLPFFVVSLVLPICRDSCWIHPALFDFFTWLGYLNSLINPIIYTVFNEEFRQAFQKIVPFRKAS
Sequence of Histamine H1 receptor (P35367 whole entry): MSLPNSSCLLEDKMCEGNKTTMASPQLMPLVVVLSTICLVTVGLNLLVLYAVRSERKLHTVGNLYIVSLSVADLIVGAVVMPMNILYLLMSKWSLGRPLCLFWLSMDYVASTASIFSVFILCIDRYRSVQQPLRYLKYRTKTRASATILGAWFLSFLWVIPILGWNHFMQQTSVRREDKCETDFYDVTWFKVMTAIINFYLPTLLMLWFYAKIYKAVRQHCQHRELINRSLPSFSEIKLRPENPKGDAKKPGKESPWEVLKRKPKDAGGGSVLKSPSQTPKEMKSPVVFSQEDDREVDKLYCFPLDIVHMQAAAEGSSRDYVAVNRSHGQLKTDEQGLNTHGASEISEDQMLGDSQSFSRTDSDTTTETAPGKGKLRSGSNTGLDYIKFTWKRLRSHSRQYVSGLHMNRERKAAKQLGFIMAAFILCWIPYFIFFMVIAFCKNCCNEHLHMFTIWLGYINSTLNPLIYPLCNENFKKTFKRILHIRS

As for `CN(C)C(=O)COC(=O)c1cc(-c2ccc(-c3cc(CO)on3)cc2)c2ccc(-c3ccc(C(F)(F)F)cc3)cc2c1`, the result in the series with Mus musculus was Active. Besides, the metabolised at 72 h at liver carboxylesterase [1] was 32.6%. Further, the Stabilty entry in series [2] is recorded as “Stable”. Also, the half-life on liver carboxylesterase [3] is > 72 h.
As to `NC(=O)Cc1ccc(-c2cc(C(=O)O)cc(-n3cc(-c4ccc(C(F)(F)F)cc4)nn3)c2)cc1`, the Ki in series [4] is 931 nM; at Translocator protein, 2810 nM.
Turning to `O=C(O)c1cc(-c2ccc(NC(=O)C3CCNCC3)cc2)cc(-n2cc(-c3ccc(C(F)(F)F)cc3)nn2)c1`, the Ki was determined as 2000 nM in series [5] and 2330 nM in series [6].
For `O=C(O)c1cc(-c2ccc(-c3cc(CO)on3)cc2)cc(-n2cc(-c3ccc(C(F)(F)F)cc3)nn2)c1`, the solubility is 3.72 ug ml-1 and 7.34 uM in [7]; 0.6 µg/mL (≈ 1.18 µM) in [8]. The inhibition constant (Ki) at Translocator protein was found to be 751 nM; at Histamine H1 receptor, 2650 nM.
Regarding `CC(=O)N1CCC(c2ccc(-c3cc(C(=O)OCC(=O)N(C)C)cc4cc(-c5ccc(C(F)(F)F)cc5)ccc34)cc2)CC1`, the outcome in the series with Mus musculus was Active. Moreover, at liver carboxylesterase [1], the metabolised at 72 h came out at 27.2%. Moreover, the Stabilty result in series [2] is “Stable”. Also, the half-life at liver carboxylesterase [3] was > 72 h. In addition, the affinity in series [4] corresponds to a Ki of 590 nM.
Consider `CN(C)C(=O)COC(=O)c1cc(-c2ccc(C3CCNCC3)cc2)cc(-n2cc(-c3ccc(C(F)(F)F)cc3)nn2)c1`, for which, on liver carboxylesterase [9], the half-life was 0.337 h. Besides, the Stabilty result in series [2] was “Stable”.
As for `O=C(O)c1cc(-c2ccc(-c3nnn[nH]3)cc2)cc(-n2cc(-c3ccc(C(F)(F)F)cc3)nn2)c1`, the figures for the inhibitory constant (Ki) in series [5] and in series [4] were 3300 nM and 2260 nM, respectively.
Turning to `O=C(O)c1cc(-c2ccc(Br)cc2)cc(-n2cc(-c3ccc(C(F)(F)F)cc3)nn2)c1`, the half-inhibitory concentration (IC50) against P2Y purinoceptor 14 is > 10000 nM.
The same measure, in the same setting: in the case of `CC(C)(C)OC(=O)NC1(c2ccc(-c3cc(C(=O)O)cc(-n4cc(-c5ccc(C(F)(F)F)cc5)nn4)c3)cc2)CCC1` it was > 10000 nM.
For `O=C(O)c1cc(-c2ccc(C3CCNCC3)cc2)c2ccc(-c3ccc(C(F)(F)F)cc3)cc2c1` [PPTN], the outcome with Mus musculus was Active. For the same molecule, the EC50 in series [10] is > 30000 nM.
With `O=CN1CCC(c2ccc(-c3cc(C(=O)O)cc4cc(-c5ccc(C(F)(F)F)cc5)ccc34)cc2)CC1`, the Ki in series [11] stood at 3970 nM; at D(1B) dopamine receptor, 1440 nM; on Histamine H4 receptor, 1700 nM; on D(1A) dopamine receptor, 520 nM; in series [14], 2650 nM; in [6] it was 759 nM. The figures for the inhibition in series [12], in series [13] and in series [15] were 84%, 81% and 82%, respectively.
